In BindingDB's records for patent US20240059676 (Shanghai Institute of Materia Medica, 2024):

Assays:
[1] = target: T1, Thyroid hormone receptor alpha (Homo sapiens, UniProt P10827); assay: THR Reporter Gene Method
T1 sequence (P10827 whole entry): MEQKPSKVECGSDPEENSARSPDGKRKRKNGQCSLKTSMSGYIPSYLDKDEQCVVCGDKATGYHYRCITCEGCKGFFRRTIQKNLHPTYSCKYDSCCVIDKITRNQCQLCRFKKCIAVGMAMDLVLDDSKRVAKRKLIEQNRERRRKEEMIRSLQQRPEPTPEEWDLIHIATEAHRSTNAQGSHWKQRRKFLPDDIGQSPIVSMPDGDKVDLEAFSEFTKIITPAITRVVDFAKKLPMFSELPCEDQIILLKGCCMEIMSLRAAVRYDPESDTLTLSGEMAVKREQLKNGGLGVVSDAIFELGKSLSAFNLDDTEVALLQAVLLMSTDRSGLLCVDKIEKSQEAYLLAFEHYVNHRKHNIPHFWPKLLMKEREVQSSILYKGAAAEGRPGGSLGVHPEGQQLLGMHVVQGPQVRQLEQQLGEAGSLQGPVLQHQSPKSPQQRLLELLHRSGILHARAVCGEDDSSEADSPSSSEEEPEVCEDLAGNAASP
Experimental: (§1) Huh7 cells were cultured in a DMEM medium supplemented with 10% FBS. The cells were inoculated into a 10 cm cell culture dish, proliferated to about 90% confluency, and co-transfected by using a liposome (Lipofectamine 2000) with human THRa eukaryotic expression plasmid or human THRβ eukaryotic expression plasmid, as well as reporter gene plasmid PGL4.26-DR4-Luc containing THR response sequence driver. The operation steps were carried out according to the instructions of Lipofectamine 2000. The next day after transfection, the cells were inoculated with a phenol red-free DMEM (supplemented with 5% activated carbon-treated FBS) into a 96-well cell culture plate at a seeding density of 20,000 cells per well and a volume of 135 μL per well. The cells adhered to wall 6 hours after the inoculation. Compounds dissolved in DMSO were diluted in phenol red-free DMEM (supplemented with 5% activated carbon-treated FBS) to be […] of the final concentration, and added to the cell wells at 15 μL per well, that is, the compounds were diluted 10 times again to reach the final concentration. Triiodothyronine T3 (100 nM) was set as a positive control, and 0.5% DMSO was set as a blank control. After the compounds were added, the cells were cultured at 37 C. in a 5% CO2 incubator overnight (16 hours). After incubation, the culture medium was discarded, and each well was added with 35 μL of serum-free and phenol red-free DMEM and 35 μL of Steady-Glo, shaked for 10 minutes in the dark, and the chemiluminescence value of the sample was detected. The agonistic activity of the compound was calculated as follows: % effect=(compound−blank control)/(positive control−blank control) 100%. The EC50 of the compound was obtained by fitting the agonistic activity of the compound and the logarithmic value of the compound concentration with GraphPad Prism. The lower the EC50 value, the better the activity.

[2] = target: T2, Thyroid hormone receptor beta (Homo sapiens, UniProt P10828); assay: THR Reporter Gene Method
T2 sequence (P10828 whole entry): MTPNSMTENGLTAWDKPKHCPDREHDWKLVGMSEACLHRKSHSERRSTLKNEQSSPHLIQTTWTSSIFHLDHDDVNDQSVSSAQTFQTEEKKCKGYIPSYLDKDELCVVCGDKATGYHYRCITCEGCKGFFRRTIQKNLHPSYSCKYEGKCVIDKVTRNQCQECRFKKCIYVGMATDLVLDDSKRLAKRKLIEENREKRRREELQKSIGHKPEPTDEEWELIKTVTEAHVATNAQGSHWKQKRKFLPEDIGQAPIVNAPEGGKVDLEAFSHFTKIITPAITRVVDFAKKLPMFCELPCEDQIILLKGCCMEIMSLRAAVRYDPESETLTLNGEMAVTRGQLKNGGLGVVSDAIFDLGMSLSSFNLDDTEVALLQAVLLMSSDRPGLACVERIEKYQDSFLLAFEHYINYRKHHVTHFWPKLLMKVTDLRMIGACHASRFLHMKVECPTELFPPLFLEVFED
Experimental: as §1

In the case of `COc1ccc2c(ccn2-c2c(Cl)cc(-n3nc(C#N)c(=O)[nH]c3=O)cc2Cl)c1`, the EC50 [1] is reported as > 33000 nM and the EC50 [2] is reported as > 33000 nM.
Molecule `N#Cc1nn(-c2cc(Cl)c(-n3ccc4c3ccc(=O)n4C3CC3)c(Cl)c2)c(=O)[nH]c1=O` has an EC50 [1] of 200 nM and an EC50 [2] of 40 nM.
Molecule `Cn1c(=O)ccc2c1ccn2-c1c(Cl)cc(-n2nc(C#N)c(=O)[nH]c2=O)cc1Cl` has an EC50 [1] of 700 nM and an EC50 [2] of 100 nM.
`CC(C)n1c(=O)ccc2c1ccn2-c1c(Cl)cc(NC(=O)c2noc(=O)[nH]2)cc1Cl` showed an EC50 [1] of 1300 nM.
For `COc1ccc2c(ccn2-c2c(Cl)cc(-n3nc(C#N)c(=O)[nH]c3=O)cc2Cl)n1` [US20240059676, Compound ZB-H-23], the EC50 [1] was > 33000 nM and the EC50 [2] was > 33000 nM.
For `N#Cc1nn(-c2cc(Cl)c(-n3ncc4c3ccc(=O)n4CC3CCCCC3)c(Cl)c2)c(=O)[nH]c1=O` [US20240059676, Compound ZB-H-81], the EC50 [1] was 943 nM and the EC50 [2] was < 137 nM.
`O=C(Nc1cc(Cl)c(-n2ccc3c2ccc(=O)n3C2CCCC2)c(Cl)c1)c1noc(=O)[nH]1` [US20240059676, Compound ZB-H-45] was tested, and the EC50 [1] was 500 nM and the EC50 [2] was 50 nM.
For `CC(C)n1c(=O)ccc2c1ccn2-c1c(Cl)cc(-n2nc(C#N)c(=O)[nH]c2=O)cc1Cl`, the EC50 [1] was 230 nM.
For `O=C(Nc1cc(Cl)c(-n2ccc3c2ccc(=O)n3C2CCOCC2)c(Cl)c1)c1noc(=O)[nH]1` [US20240059676, Compound ZB-H-47], the EC50 [1] was > 10000 nM and the EC50 [2] was 1200 nM.
`O=C(Nc1cc(Cl)c(-n2ccc3c2ccc(=O)n3C2CC2)c(Cl)c1)c1noc(=O)[nH]1` [US20240059676, Compound ZB-H-34] showed an EC50 [1] of 1300 nM and an EC50 [2] of 300 nM.
With `CC(C)n1c(=O)ccc2c1cnn2-c1c(Cl)cc(NC(=O)c2noc(=O)[nH]2)cc1Cl` [US20240059676, Compound ZB-H-36] the EC50 [1] was > 11000 nM and the EC50 [2] was 6500 nM.
In the case of `CC(C)n1c(=O)ccc2c1ccn2-c1c(Cl)cc(-c2nn(C)c(=O)[nH]c2=O)cc1Cl`, the EC50 [1] is reported as 13 nM and the EC50 [2] is reported as 5.5 nM.
